Laboratory results: patent US5380759A, “Methyl N-[6-(3,4,5-trimethoxybenzloxy)imidazo[1,2-b]pyridazin-2-zyl]carbamate used to treat leukemia” (priority 1987, dated 1995)
Read-outs that look alike come from different tables or passages of the source.

Legend:
[1] = tested on: DLD-1 human colon carcinoma cells; assay: In vitro activity against human tumour cell line DLD-1 (proliferation); assay type: cell-based; details: DLD-1, 96 h
Experimental: (§1) Cells from the human tumour cell lines DLD-1, HCT-116, WiDr and A549 are exposed to serially diluted concentrations of test compounds over a 96 hour period in culture. The ability of such cells to proliferate over the test period is determined.
(§2) Cells in log growth are plated into 96 well multiwell tissue culture dishes in 100 μl/well of RPMI 1640 culture medium supplemented with 10% foetal calf serum, antibiotics and test compound. All compounds are formulated initially at appropriate concentrations in DMSO, the final concentrations in this solvent being twenty times that required in the plate. A final 1 in 10 dilution in complete medium is then made before adding 100 μl to each well of the plate. All compounds are evaluated at concentrations ranging serially in four fold decrements from a top concentration some four fold greater than that already known to inhibit the proliferation of cells from the mouse lymphoid neoplasm, P388D1 by about 80 to 90 percent in a primary proliferative assay.
(§3) After 96 hours the proliferation of cells exposed to test compound is compared with control untreated cells by one of two methods:
a) Culture supernatants are aspirated and cells fixed and stained by adding a solution of methylene blue (5 g per liter of 50% ethanol: water, 100 μl/well). After 30 minutes at room temperature unbound stain is washed off by immersing plates in water. Stained cells are solubilised overnight using 1% Sarkosyl (Sigma) in phosphate-buffered saline (100 μl/well). Absorbances are read by an ELISA plate spectrophotometer at a wavelength of 620 nm. The IC50 is defined as that concentration of drug which decreases absorbance to 50% of that in control (drug-free) cultures. This method is used for the DLD-1 cell line.

[2] = tested on: P388 D1 cells; assay: P388 D1 colony-forming assay; assay type: cell-based; details: Mus musculus
Experimental: B) P338D1 Colony-forming Assay
In this assay, cells from an in vitro-adapted line of the mouse lymphoid neoplasm, P388 are first exposed to serially diluted concentrations of test compound over a 24 hour period in culture. Thereafter, the ability of such treated cells to form discrete colonies over a 14 day period after resuspension in a semi-solid drug-free medium is determined.
Initially cells in log growth are plated into individual 25 cm^2 tissue culture flasks each containing a final volume of 5 mls of Hepes buffered RPMI 1640 culture medium supplemented with 10 percent foetal calf serum, antibiotics and test compound. All compounds are formulated initially at appropriate concentrations in DMSO, 25 microliters of which is then added to each flask. All compounds are evaluated at concentrations ranging serially in four fold decrements from a top concentration some four fold greater than that already known to inhibit the proliferation of these cells by about 80 to 90 percent in the primary proliferative assay.
After 24 hrs exposure to the test compound the cells are counted and a known number of live cells transferred to a 15 ml centrifuge tube to which 4 mls of a 0.25 percent low temperature gelling agarose solution in complete RPMI tissue culture medium is then added. After 13 days incubation at 37° C., 1 ml of 1% p-Iodonitrotetrazolium violet is added to the top of each tube and allowed to permeate through the agarose for a further 24 to 48 hrs. This dye is metabolised by living cells to produce an insoluble red crystalline product which facilitates counting of the colonies. Samples are taken from each tube and the number of colonies containing a minimum of 50 cells is determined. The concentration of compound necessary to inhibit colony formation by 50 percent relative to that of control cells incubated under identical conditions but in the absence of the test compound is determined.

[3] = tested on: WiDr human colon adenocarcinoma cells; assay: In vitro activity against human tumour cell line WiDr (proliferation); assay type: cell-based; details: 96 h
Experimental: as §1, §2, §3
(§4) b) 20 μl of MTT (5 mg/ml in PBS) is added to each well. After an incubation period of 4 hours the medium from each well is aspirated and replaced with 200 μl DMSO to dissolve the formazan crystals formed. Absorbances are read by an ELISA plate spectrophotometer at a wavelength of 540 nm. The IC50 is defined as that concentration of drug which decreases absorbance to 50% of that in control (drug-free) cultures. This method is used for the WiDr, HCT-116 and A549 cell lines.

[4] = tested on: A549 human lung carcinoma cells; assay: In vitro activity against human tumour cell line A549 (proliferation); assay type: cell-based; details: A549, 96 h
Experimental: as §1, §2, §3, §4

[5] = tested on: HCT-116 human colon carcinoma cells; assay: In vitro activity against human tumour cell line HCT-116 (proliferation); assay type: cell-based; details: HCT-116, 96 h
Experimental: as §1, §2, §3, §4

[6] = LD20 (Mouse); assay type: in vivo; details: i.p. days 1, 5 and 9, CD2-F1 mice, observed up to 14 days
[7] = tested on: tubulin; assay: Turbidimetric assay of tubulin polymerisation; assay type: biochemical, horse; details: 37° C., increase in A350nm 10 min after lag phase; read-out: Total tubulin polymerisation IC50
Experimental: A) Tubulin Polymerisation Assay
1. Preparation of tubulin
All manipulations are performed at 4° C. unless otherwise specified. The horse brain is washed in ice-cold BBG buffer and superficial meninges and blood vessels removed. After weighing, cerebral cortices are chopped, homogenised in 75 ml BBG buffer/100 g brain, centrifuged at 6500 g for 15 min and after removal of […], re-centrifuged at 100,000 g for 75 min. The volume of the supernatant (Vml) is measured and V/10 ml 10 mM GTP (Li salt) in H2 O added. The mixture is incubated in sealed centrifuge tubes (30 min, 34° C.) in a shaking water bath to polymerise the tubulin. After polymerisation the tubes are balanced and centrifuged at 100,000 g, (1 h at 27° C.) in a pre-warmed rotor. The high-speed pellet is resuspended in V/4 ml BB buffer and the preparation stirred on ice for 30 min and centrifuged at 100,000 g (1 h at 4° C.) to remove the cold-stable microtubules. An equal volume of BB2G buffer is added to the supernatant which is frozen rapidly in 5 ml samples in plastic weighing dishes floated on a solid CO2 /ethanol slurry, and stored overnight at -80° C. After ca. 18 hours the frozen samples of tubulin are thawed, 10 mM GTP in H2 O added to give a final concentration of 1 mM, and the new volume (Wml), is measured. The polymerisation/depolymerisation cycle is repeated exactly as above but substituting W for V to give twice-cycled tubulin.
2. Turbidimetric Assay of Tubulin Polymerisation
Apparatus: recording spectrophotometer with a 6-position, thermostatted cuvette holder; full scale deflection=0.2 absorbance units.
In a 1 ml spectrophotometer cuvette are mixed 100 μl 10 mM GTP (Li salt) made up in BB buffer, 10 μl H2 O or DMSO-depending on selected drug solvent, BB buffer and tubulin preparation such that the final increase in A350nm is 0.15 units after 16 mins (approx. 100 μl of tubulin prep. or 2.5 mg protein) in a final volume of 1 ml at 37° C. All reagents are stored on ice.
Polymerisation is initiated by raising the temperature to 37° C. and the increase in A350nm of triplicate samples against a reference cuvette is recorded. The reference sample includes a similar incubation mixture either without tubulin or with the addition of 1 mM Ca^2+. The increase over initial A350nm 10 min after the completion of lag phase (control polymerisation is 80% complete within this time) is calculated and expressed as a percentage of the control value, for a range of drug concentrations. The drug concentration required to give a 50% change (IC50) in the control value is determined.

[8] = tested on: P388/O tumour; assay: Lymphocytic leukaemia P388/O test; assay type: in vivo, mouse
Experimental: C. Lymphocytic Leukemia P388/O Test
CD2-F1 mice, of the same sex, weighing within a 3 gram range surrounding 20 g, are used for this test. Control and test animals are injected intraperitoneally with a suspension of 10^6 viable P388/O tumour cells on day 0. In each test several dose levels which bracket the LD20 for the compound are evaluated; each dose level group contains 6 animals. The test compounds are prepared either in physiologic saline containing 0.05% Tween 80 or distilled water containing 5% dextrose and are administered intraperitoneally on days 1,5 and 9 relative to tumour implant. Doses are on a mg/kg basis according to individual animals' body weights. The day of death for each animal is recorded and the median day of death identified for each group. The difference between the median survival time for treated and control groups is expressed as a percentage increase in life span (% ILS).

[9] = P388D1, 24 h exposure, 14 days colony growth, read-out: IC50 colony formation
[10] = Mus musculus, P388, ip, 200 mg/kg i.p. days 1, 5 and 9
[11] = Mus musculus, P388, ip, 675 mg/kg i.p. days 1, 5 and 9

In the case of `CCOC(=O)Nc1cn2nc(OCc3cc(OC)ccc3OC)ccc2n1` [Example 2, Ethyl N-[6-(2,5-Dimethoxybenzyloxy)imidazo[1,2-b]pyridazin-2-yl]carbamate], the IC50 [1] is reported as 2.9 nM, the IC50 ([2]; P388D1, read-out: IC50 colony formation) is reported as 0.516 nM and the IC50 [3] is reported as 4.57 nM. It also gave an IC50 [4] of 3.42 nM, an IC50 [5] of 2.8 nM and an LD50 [6] of 5 mg/kg. For the same molecule, the IC50 [7] was 140 nM and the ILS at 7.3 mg/kg ([8]; Mus musculus, P388, ip) was 31%.

In the case of `COC(=O)Nc1cn2nc(OCc3cc(OC)ccc3OC)ccc2n1` [Example 3, Methyl N-[6-(2,5-Dimethoxybenzyloxy)imidazo[1,2-b]pyridazin-2-yl]carbamate], the IC50 ([1]; methylene blue, read-out: IC50) is reported as 1.35 nM, the IC50 [2, 9] is reported as 2.15 nM and the IC50 ([3]; MTT, read-out: IC50) is reported as 0.92 nM. The IC50 [4] was 1.92 nM, the IC50 ([5]; MTT, read-out: IC50) was 1.91 nM and the LD50 [6] was 200 mg/kg. For the same molecule, the IC50 [7] was 410 nM and the ILS at 50 mg/kg ([8]; Mus musculus, P388, ip, 50 mg/kg i.p. days 1, 5 and 9) was 136%.

`CCCOC(=O)Nc1cn2nc(OCc3cc(OC)c(OC)c(OC)c3)ccc2n1` [Example 4, n-Propyl N-[6-(3,4,5-trimethoxybenzyloxy)imidazo[1,2-b]pyridazin-2-yl]carbamate] gave an IC50 ([1]; methylene blue, read-out: IC50) of 6.63 nM, an IC50 [2, 9] of 5.12 nM and an IC50 ([3]; MTT, read-out: IC50) of 11 nM. For the same molecule, the IC50 ([4]; MTT, read-out: IC50) was 20.8 nM, the IC50 ([5]; MTT, read-out: IC50) was 5.45 nM and the LD50 [6] was 20 mg/kg. For the same molecule, the IC50 [7] was 370 nM and the ILS at 20 mg/kg ([8]; Mus musculus, P388, ip, 20 mg/kg i.p. days 1, 5 and 9) was 44%.

With `CCCCOC(=O)Nc1cn2nc(OCc3cc(OC)c(OC)c(OC)c3)ccc2n1` [Example 5, n-Butyl N-[6-(3,4,5-trimethoxybenzyloxy)imidazo[1,2-b]pyridazin-2-yl]carbamate] the IC50 ([1]; methylene blue, read-out: IC50) was 7.34 nM, the IC50 [2, 9] was 12.6 nM and the IC50 ([3]; MTT, read-out: IC50) was 3.65 nM. It also gave an IC50 ([4]; MTT, read-out: IC50) of 4.36 nM, an IC50 ([5]; MTT, read-out: IC50) of 3.3 nM and an LD50 [6] of 140 mg/kg. It also gave an IC50 [7] of 490 nM and an ILS at 150 mg/kg ([8]; Mus musculus, P388, ip, 150 mg/kg i.p. days 1, 5 and 9) of 61%.

In the case of `COC(=O)Nc1cn2nc(OCc3cccc4ccccc34)ccc2n1` [Example 9, Methyl N-[6-(1-Naphthylmethyloxy)imidazo[1,2-b]pyridazin-2-yl]carbamate], the LD50 [6] is reported as 450 mg/kg, the IC50 [7] is reported as 890 nM and the ILS at 200 mg/kg [8, 10] is reported as 180%.

For `COC(=O)Nc1cn2nc(OCc3cc(OC)cc(OC)c3)ccc2n1` [Example 11, Methyl N-[6-(3,5-Dimethoxybenzyloxy)imidazo[1,2-b)pyridazin-2-yl]carbamate], the IC50 [2, 9] was 41 nM, the LD50 [6] was over 450 mg/kg and the IC50 [7] was 4240 nM. For the same molecule, the “30 Day survivors” value ([8]; 675 mg/kg i.p. days 1, 5 and 9) was 1/6, the “60 Day Survivors” value ([8]; 675 mg/kg i.p. days 1, 5 and 9) was 0/6 and the ILS at 675 mg/kg [8, 11] was 155%.

For `COC(=O)Nc1cn2nc(OCc3cccc(C)c3)ccc2n1` [Example 12, Methyl N-[6-(3-methylbenzyloxy)imidazo[1,2-b]pyridazin-2-yl]carbamate], the LD50 [6] was over 450 mg/kg, the IC50 [7] was 1210 nM and the ILS at 675 mg/kg [8, 11] was 170%.

For `COC(=O)N(C)c1cn2nc(OCc3cc(OC)c(OC)c(OC)c3)ccc2n1` [Example 26, Methyl N-[N-Methyl-6-(3,4,5-trimethoxybenzyloxy)imidazo[1,2-b]pyridazin-2-yl]carbamate], the LD50 [6] was 450 mg/kg and the ILS at 300 mg/kg ([8]; Mus musculus, P388, ip, 300 mg/kg i.p. days 1, 5 and 9) was 263%.

For `COC(=O)Nc1cn2nc(OCc3cc(OC)c(OC)c(OC)c3Br)ccc2n1` [Example 31, Methyl N-[6-(2-bromo-3,4,5-trimethoxybenzyloxy)imidazo[1,2-b]pyridazin-2-yl]carbamate], the LD50 [6] was 165 mg/kg.

In the case of `COC(=O)Nc1cn2nc(OCc3cccc(OC)c3OC)ccc2n1` [Example 32, Methyl N-[6-(2,3-dimethoxybenzyloxy)imidazo[1,2-b]pyridazin-2-yl]carbamate], the LD50 [6] is reported as over 450 mg/kg, the “60 Day Survivors” value ([8]; 750 mg/kg i.p. days 1, 5 and 9) is reported as 1/6 and the ILS at 750 mg/kg ([8]; Mus musculus, P388, ip, 750 mg/kg i.p. days 1, 5 and 9) is reported as 280%.

In the case of `CCOc1c(OC)cc(COc2ccc3nc(NC(=O)OC)cn3n2)cc1OC` [Example 33, Methyl N-[6-(3,5-dimethoxy-4-ethoxybenzyloxy)imidazo[1,2-b]pyridazin-2-yl]carbamate], the “60 Day Survivors” value ([8]; (Day 51), 200 mg/kg i.p. days 1, 5 and 9) is reported as 3/6 and the ILS at 200 mg/kg [8, 10] is reported as 240%.
